Data: ChEMBL document CHEMBL5038595, “Synthesis and Pharmacological Evaluation of Tetrahydro-γ-carboline Derivatives as Potent Anti-inflammatory Agents Targeting Cyclic GMP-AMP Synthase” (J Med Chem, 2021)

Key:
[1] = target: T1, Cyclic GMP-AMP synthase (Homo sapiens, UniProt Q8N884); test: Inhibition of human cGAS incubated for 1 hr followed by Cy5-labeled cGAMP addition and measured after 1 hr by fluorescence polarization assay
[2] = target: T1, Cyclic GMP-AMP synthase; test: Inhibition of human cGAS assessed as reduction in 2,3-cGAMP synthesis by measuring ATP consumption incubated for 20 mins by Kinase Glo luminescence assay
[3] = target: T1, Cyclic GMP-AMP synthase; test: Inhibition of human cGAS expressed in THP1-Dual cells transfected with HT-DNA assessed as suppression of lipofectamine 2000:ds-DNA complex induced activation of cGAS incubated for 1 hr by Quanti-luc reagent based assay; assay type: cell-based
[4] = target: T2, Cyclic GMP-AMP synthase (Mus musculus, UniProt Q8C6L5); test: Inhibition of mouse cGAS expressed in RAW-Lucia ISG transfected with HT-DNA assessed as suppression of lipofectamine 2000:ds-DNA complex induced activation of cGAS incubated for 1 hr by Quanti-luc reagent based assay; assay type: cell-based
T2 sequence (Q8C6L5 whole entry): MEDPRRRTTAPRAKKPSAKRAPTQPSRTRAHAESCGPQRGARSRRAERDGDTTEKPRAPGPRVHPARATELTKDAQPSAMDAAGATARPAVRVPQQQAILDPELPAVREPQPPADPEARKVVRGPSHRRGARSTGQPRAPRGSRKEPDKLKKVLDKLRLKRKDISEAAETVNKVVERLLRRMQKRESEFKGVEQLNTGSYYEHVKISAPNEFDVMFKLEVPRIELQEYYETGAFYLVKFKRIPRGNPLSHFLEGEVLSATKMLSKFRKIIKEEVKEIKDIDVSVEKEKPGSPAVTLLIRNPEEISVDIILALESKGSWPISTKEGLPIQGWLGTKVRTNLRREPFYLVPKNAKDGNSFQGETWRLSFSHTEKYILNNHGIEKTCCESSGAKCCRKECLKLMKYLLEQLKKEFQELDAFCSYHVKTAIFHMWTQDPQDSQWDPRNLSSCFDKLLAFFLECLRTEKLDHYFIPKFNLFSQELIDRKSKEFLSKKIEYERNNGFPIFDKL

[5] = tested on: Mus musculus; test: Anti-inflammatory activity against LPS-induced acute lung injury BALB/c mouse model assessed as inhibition of LPS-induced IL-12 release by measuring fold decrease in IL-12 level at 30 mg/kg, ip treated 1 hr before LPS stimulation and measured after 1.5 hrs by ELISA; assay type: functional; details: time 2.5 hrs
[6] = Cytotoxicity against mouse RAW-Lucia ISG cells assessed as reduction in cell viability incubated for 24 hrs by CCK-8 assay; assay type: toxicity, cell-based
[7] = tested on: Mus musculus; test: Anti-inflammatory activity against LPS-induced acute lung injury BALB/c mouse model assessed as inhibition of LPS-induced IL-6 release by measuring fold decrease in IL-6 level at 30 mg/kg, ip treated 1 hr before LPS stimulation and measured after 1.5 hrs by ELISA; assay type: functional; details: time 2.5 hrs
[8] = tested on: Mus musculus; test: Anti-inflammatory activity against LPS-induced acute lung injury BALB/c mouse model assessed as inhibition of LPS-induced TNFalpha release by measuring fold decrease in TNFalpha level at 30 mg/kg, ip treated 1 hr before LPS stimulation and measured after 1.5 hrs by ELISA; assay type: functional; details: time 2.5 hrs
[9] = Cytotoxicity against human THP1-Dual cells assessed as reduction in cell viability incubated for 24 hrs by CCK-8 assay; assay type: toxicity, cell-based
[10] = target: T2, Cyclic GMP-AMP synthase; test: Inhibition of mouse cGAS

T1 sequence (Q8N884 whole entry): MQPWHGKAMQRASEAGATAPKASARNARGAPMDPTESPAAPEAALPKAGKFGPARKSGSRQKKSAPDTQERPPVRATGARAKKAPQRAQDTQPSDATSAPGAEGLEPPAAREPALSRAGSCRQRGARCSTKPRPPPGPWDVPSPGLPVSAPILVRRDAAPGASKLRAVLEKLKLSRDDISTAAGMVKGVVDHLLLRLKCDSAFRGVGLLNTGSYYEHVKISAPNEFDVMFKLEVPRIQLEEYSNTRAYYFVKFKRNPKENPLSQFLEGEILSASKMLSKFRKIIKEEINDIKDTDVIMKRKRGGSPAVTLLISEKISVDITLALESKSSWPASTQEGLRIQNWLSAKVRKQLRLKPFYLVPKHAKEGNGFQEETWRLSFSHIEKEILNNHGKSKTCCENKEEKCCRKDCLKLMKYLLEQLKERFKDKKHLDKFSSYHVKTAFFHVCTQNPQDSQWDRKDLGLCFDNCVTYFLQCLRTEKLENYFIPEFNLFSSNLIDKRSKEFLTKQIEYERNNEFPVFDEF

N#Cc1c(NC(=O)c2n[nH]c(-n3cnnc3)n2)sc2c1CCCC2
IC50 [1]: 4.9 µM

COC(=O)c1nc(N)nc(Nc2cc(F)c(I)c(F)c2)n1
IC50 [2]: 0.24 µM

Cn1ccc(-c2cc(Cl)c(Cl)c3[nH]c4c(c23)CN(C(=O)CNC(=O)CN)CC4)n1
IC50 [3]: 1.38 µM | IC50 [4]: 11.4 µM | fold change (FC) [5]: 7.6 | CC50 at 24 h [6]: 33 µM | fold change (FC) [7]: 2.5 | fold change (FC) [8]: 2.6 | CC50 at 24 h [9]: 25.3 µM

Nc1ccc(-c2cc(Cl)c(Cl)c3[nH]c4c(c23)CN(C(=O)CO)CC4)cn1
IC50 [10]: > 25 µM
